Results from US5635502A, “Mercaptoacetylamide bicyclic lactam derivatives useful as inhibitors of enkephalinase and ACE” (Merrell Pharmaceuticals Inc., priority 1995, dated 1997).
Where a SMILES comes first, the peptide text is derived from it. [ ]: non-standard residue; d: D form. The star is where a group is joined. Phe(4-NO2) = N[C@@H](Cc1ccc([N+](=O)[O-])cc1)C(=O)O; Dansyl = CN(C)c1cccc2c(S(=O)(=O)*)cccc12

Biological target: T1, Enkephalinase (endopeptidase-24.11) partially purified from rat kidney (Rattus norvegicus, UniProt P07861)
T1 construct: Enkephalinase is partially purified from rat kidney; from tissue; host or cells: rat kidney, microvilli fraction
T1 sequence (P07861 1-750): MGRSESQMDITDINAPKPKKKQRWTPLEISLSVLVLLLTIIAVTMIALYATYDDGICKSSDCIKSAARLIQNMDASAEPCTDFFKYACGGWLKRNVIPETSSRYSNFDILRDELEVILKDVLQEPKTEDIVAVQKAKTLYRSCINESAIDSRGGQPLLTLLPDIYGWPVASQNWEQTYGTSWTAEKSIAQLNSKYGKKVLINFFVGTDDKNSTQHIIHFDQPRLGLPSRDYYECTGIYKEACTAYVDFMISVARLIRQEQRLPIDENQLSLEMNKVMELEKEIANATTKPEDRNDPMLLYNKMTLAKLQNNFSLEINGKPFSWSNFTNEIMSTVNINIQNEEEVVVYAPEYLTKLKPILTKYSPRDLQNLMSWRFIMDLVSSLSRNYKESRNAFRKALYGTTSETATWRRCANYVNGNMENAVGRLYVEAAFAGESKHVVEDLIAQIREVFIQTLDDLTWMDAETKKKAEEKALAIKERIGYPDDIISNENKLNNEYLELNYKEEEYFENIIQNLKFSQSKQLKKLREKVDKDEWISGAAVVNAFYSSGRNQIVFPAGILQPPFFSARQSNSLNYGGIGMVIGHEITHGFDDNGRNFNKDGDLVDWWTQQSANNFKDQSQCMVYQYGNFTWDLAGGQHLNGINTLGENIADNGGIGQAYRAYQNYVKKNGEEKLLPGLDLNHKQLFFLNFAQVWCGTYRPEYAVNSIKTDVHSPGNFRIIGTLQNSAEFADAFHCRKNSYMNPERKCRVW
Test: Enkephalinase fluorometric assay with substrate dansyl-D-AlaGly(p-nitro)PheGly
Type: biochemical
Conditions: substrate of enkephalinase; 50 mM HEPES buffer pH 7.4, 25° C.
Description: Enkephalinase is partially purified from rat kidney. The enzyme is extracted from the microvilli fraction by using Triton X-100 according to the method of Malfroy and Schwartz [J. Biol. Chem. 259, 14365-14370 (1984)] or by using a proteolytic treatment according to the method of Almenoff and Orlowski [Biochem. 22, 590-599 (1983)]. The enzyme is further purified by anion exchange chromatography (Mono Q™ column, Pharmacia) using a Pharmacia FPLC system. The enzyme activity may be measured by the fluorometric methods of Florentin et al. [Anal. Biochem. 141, 62-69 (1984)] or of Almenoff and Orlowski [J. Neurochemistry 42, 151-157 (1984)]. The enzyme is assayed in 50 mM HEPES buffer (pH 7.4) in a 3.0 mL reaction volume containing 12 μM of the substrate dansyl-D-AlaGly(p-nitro)PheGly (Km =40 μM) at 25° C. The substrate (and inhibitor) is added from a concentrated stock solution in DMSO (up to 0.1 mL DMSO final volume). The enzyme in a small volume (approximately 0.1 μg of FPLC purified protein) is added to initiate the reaction and the rate of fluorescence increase is recorded continuously using a fluorometer (excitation at 339 nm, emission at 562 nm).

C[C@@H](NS(=O)(=O)c1cccc2c(N(C)C)cccc12)C(=O)NCC(=O)N[C@@H](Cc1ccc([N+](=O)[O-])cc1)C(=O)NCC(=O)O [dansyl-D-AlaGly(p-nitro)PheGly] (Dansyl-[dA]G[Phe(4-NO2)]G-OH)
Km: 40 µM
